Measurements published in patent US20230382920A1, “SHMT Inhibitors” (The Trustees of Princeton University, priority 2020, published 2023).

What was measured:
[1] = Mouse liver microsome assay (metabolic stability); format: in vitro ADME; conditions: mouse liver microsomes; for half-life at 2 µM: in vitro half-life; for microsomal CLint at 2 µM: in vitro intrinsic clearance, read-out: Relative Clint
Description: Example 6. Mouse Liver Microsome Assay
Metabolic stability of several compounds in mouse liver microsomes was tested. Briefly, a master solution was prepared according to Table 31.
Two separate experiments were performed: an experiment with cofactors and an experiment without cofactors. In the experiment with cofactors 40 μL of 10 mM NADPH and 40 μL of 20 mM UDPGA were added to the incubations. The final concentrations of microsomes, NADPH and UDPGA were 0.5 mg/mL, 1 mM and 2 mM, respectively. In the experiment without cofactors 10 μL of 20 mg/mL liver microsomes and 80 μL of ultra-pure H2O were added to the incubations. The final concentration of microsomes was 0.5 mg/mL. The mixture was pre-warmed at 37° C. for 5 minutes.
The reaction was started with the addition of 4 μL of 200 μM control compound or test compound solutions. Verapamil was used as positive control in this study. The final concentration of test compound was 2 μM and the final concentration of control compound was 1 μM. The incubation solution was incubated in water bath at 37° C.
Aliquots of 50 μL were taken from the reaction solution at 0.5, 5, 15, 30, 45 and 60 minutes. The reaction was stopped by the addition of five volumes of cold acetonitrile with IS (100 nM alprazolam, 200 nM caffeine and 100 nM tolbutamide). Samples were centrifuged at 3,220 g for 40 minutes. Aliquot of 100 μL of the supernatant was mixed with 100 μL of ultra-pure H2O and then subject to LC-MS/MS analysis.
All calculations were carried out using Microsoft Excel. Peak areas were determined from extracted ion chromatograms. The slope value, k, was determined by linear regression of the natural logarithm of the remaining percentage of the parent drug versus incubation time curve. The in vitro half-life (in vitro t½) was determined from the slope value:
Conversion of the in vitro t1/2(min) into the in vitro intrinsic clearance (in vitro CLint, in μL/min/mg protein) was done using the following equation (mean of duplicate determinations): […]

[2] = test system: HCT116; experiment: HCT116 growth inhibition assay; format: cell-based; conditions: without formate
Description: (§1) Example 5. HCT116 Growth Inhibition and Formate Rescue Assays
(§2) 3,000 Cells were plated in each well of a 96-well plate with 80 μL of DMEM media supplemented with 10% dFBS, and incubated for 24 hours. Drugs with or without sodium formate (1 mM) were then added to each well to a final volume of 100 μL. Cell growth was measured as fluorescence intensity by resazurin after four days. In short, resazurin was added to each well to a final concentration of 10 μg·mL^−1. After incubation for one hour, fluorescence was measured by a Synergy HT plate reader (BioTek Instruments).

[3] = test system: HCT116; experiment: HCT116 formate rescue assay (with sodium formate 1 mM); format: cell-based; conditions: HCT116 growth
Description: as §1, §2

Cc1n[nH]c2c1C(c1cc(C#C[C@@H]3C[C@H]3CO)cc(CO)c1)(C(C)C)C(C#N)=C(N)O2 (some centres unmarked) [KDG-0136]
half-life at 2 µM [1]: 10 to 20 min | microsomal CLint at 2 µM [1]: ≤ 70 µL/min/mg | IC50 [2]: C″ | IC50 ([3]; Homo sapiens, HCT-116, 96 h): > 5 µM

Cc1n[nH]c2c1C(c1cc(C#C[C@H]3C[C@@H](C(C)(C)O)C3)cc(C(C)(C)O)c1)(C(C)C)C(C#N)=C(N)O2 (some centres unmarked) [KDG-0261-100]
half-life at 2 µM [1]: < 5 min | microsomal CLint at 2 µM [1]: > 250 µL/min/mg | IC50 [2]: C″ | IC50 ([3]; Homo sapiens, HCT-116, 96 h): > 5 µM

Cc1n[nH]c2c1C(c1cc(C#C[C@H]3C[C@H](COC(N)=O)C3)cc(C(C)(C)O)c1)(C(C)C)C(C#N)=C(N)O2 (some centres unmarked) [KDG-0262]
half-life at 2 µM [1]: < 5 min | IC50 [2]: C″

Cc1n[nH]c2c1C(c1cc(C#C[C@H]3C[C@H](C(=O)N(C)C)C3)cc(CO)c1)(C(C)C)C(C#N)=C(N)O2 (some centres unmarked) [KDG-0265]
half-life at 2 µM [1]: 5 to 10 min | IC50 [2]: C″

Cc1n[nH]c2c1C(c1cc(C#C[C@H]3CC[C@@](C)(O)CC3)cc(CO)c1)(C(C)C)C(C#N)=C(N)O2 (some centres unmarked) [KDG-0270]
half-life at 2 µM [1]: < 5 min | IC50 [2]: B″

Cc1n[nH]c2c1C(c1cc(C#CC3CCOCC3)cc(CO)c1)(C(C)C)C(C#N)=C(N)O2 (centres unmarked) [KDG-0273]
half-life at 2 µM [1]: < 5 min | IC50 [2]: B″

Cc1n[nH]c2c1C(c1cc(C#CC3CCCN3C(=O)OC(C)(C)C)cc(CO)c1)(C(C)C)C(C#N)=C(N)O2 (centres unmarked) [KDG-0280]
half-life at 2 µM [1]: < 5 min | microsomal CLint at 2 µM [1]: > 250 µL/min/mg | IC50 [2]: B″ | IC50 ([3]; Homo sapiens, HCT-116, 96 h): > 5 µM

Cc1n[nH]c2c1C(c1cc(C#CC3CCN(C(=O)OC(C)(C)C)CC3)cc(CO)c1)(C(C)C)C(C#N)=C(N)O2 (centres unmarked) [KDG-0289]
half-life at 2 µM [1]: 5 to 10 min | microsomal CLint at 2 µM [1]: 100 to 250 µL/min/mg | IC50 [2]: A″ | IC50 ([3]; Homo sapiens, HCT-116, 96 h): < 0.1 µM

Cc1n[nH]c2c1C(c1cc(C#CC3(C)CCN(C(=O)OC(C)(C)C)CC3)cc(CO)c1)(C(C)C)C(C#N)=C(N)O2 (centres unmarked) [KDG-0296]
half-life at 2 µM [1]: 5 to 10 min | microsomal CLint at 2 µM [1]: 100 to 250 µL/min/mg | IC50 [2]: C″ | IC50 ([3]; Homo sapiens, HCT-116, 96 h): < 0.1 µM

Cc1n[nH]c2c1C(c1cc(C#CC3(F)CCN(C(=O)OC(C)(C)C)CC3)cc(CO)c1)(C(C)C)C(C#N)=C(N)O2 (centres unmarked) [KDG-0297]
half-life at 2 µM [1]: 5 to 10 min | microsomal CLint at 2 µM [1]: 100 to 250 µL/min/mg | IC50 [2]: B″ | IC50 ([3]; Homo sapiens, HCT-116, 96 h): > 5 µM

Cc1n[nH]c2c1[C@](c1cc(C#CC3(C(F)(F)F)CN(C(=O)OC(C)(C)C)C3)cc(CO)c1)(C(C)C)C(C#N)=C(N)O2 [KDG-0301]
half-life at 2 µM [1]: ≥ 20 min | microsomal CLint at 2 µM [1]: ≤ 70 µL/min/mg | IC50 [2]: A″ | IC50 ([3]; Homo sapiens, HCT-116, 96 h): > 5 µM

COC(=O)N1CC(F)(C#Cc2cc(CO)cc([C@@]3(C(C)C)C(C#N)=C(N)Oc4[nH]nc(C)c43)c2)C1 [KDG-0313]
half-life at 2 µM [1]: ≥ 20 min | microsomal CLint at 2 µM [1]: ≤ 70 µL/min/mg | IC50 [2]: B″ | IC50 ([3]; Homo sapiens, HCT-116, 96 h): > 5 µM

Cc1n[nH]c2c1C(c1cc(C#C[C@H]3CC[C@@H](NC(=O)OC(C)(C)C)CC3)cc(CO)c1)(C(C)C)C(C#N)=C(N)O2 (some centres unmarked) [KDG-0321]
half-life at 2 µM [1]: < 5 min | microsomal CLint at 2 µM [1]: > 250 µL/min/mg | IC50 [2]: A″ | IC50 ([3]; Homo sapiens, HCT-116, 96 h): < 0.1 µM

Cc1n[nH]c2c1C(c1cc(C#CC3CN(C(=O)OC(C)(C)C)C3)cc(CF)c1)(C(C)C)C(C#N)=C(N)O2 (centres unmarked) [KDG-0345]
half-life at 2 µM [1]: 5 to 10 min | microsomal CLint at 2 µM [1]: 100 to 250 µL/min/mg | IC50 [2]: A″

Cc1n[nH]c2c1C(c1cc(C#C[C@H]3C[C@@H](NC(=O)OC(C)(C)C)C3)cc(CO)c1)(C(C)C)C(C#N)=C(N)O2 (stereo partly drawn) [KDG-0388-0pk2, tert-butyl N-[(1s,3s)-3-(2-[3-[(4R)-6-amino-5-cyano-4-isopropyl-3-methyl-1H-pyrano[2,3-c]pyrazol-4-yl]-5-(hydroxymethyl)phenyl]ethynyl)cyclobutyl]carbamate]
IC50 [2]: A″ | IC50 [3]: > 5 µM

Cc1n[nH]c2c1[C@](c1cc(C#C[C@H]3C[C@@H](NC(=O)OC(C)(C)C)C3)cc(CO)c1)(C(C)C)C(C#N)=C(N)O2 [KDG-0388-Opk1, tert-butyl N-[(1s,3s)-3-(2-[3-[(4S)-6-amino-5-cyano-4-isopropyl-3-methyl-1H-pyrano[2,3-c]pyrazol-4-yl]-5-(hydroxymethyl)phenyl]ethynyl)cyclobutyl]carbamate]
IC50 [2]: D″ | IC50 ([3]; Homo sapiens, HCT-116, 96 h): < 0.1 µM

Cc1n[nH]c2c1C(c1cc(C#CC3CN(C(=O)NC(C)(C)C)C3)cc(CO)c1)(C(C)C)C(C#N)=C(N)O2 (centres unmarked) [KDG-0412]
half-life at 2 µM [1]: 10 to 20 min | microsomal CLint at 2 µM [1]: 70 to 100 µL/min/mg | IC50 [2]: D″ | IC50 ([3]; Homo sapiens, HCT-116, 96 h): > 5 µM

[2H]C([2H])(O)c1cc(C#CC2CN(C(=O)OC(C)(C)C)C2)cc(C2(C(C)C)C(C#N)=C(N)Oc3[nH]nc(C)c32)c1 (centres unmarked) [KDG-0413]
half-life at 2 µM [1]: 10 to 20 min | microsomal CLint at 2 µM [1]: 70 to 100 µL/min/mg | IC50 [2]: B″ | IC50 ([3]; Homo sapiens, HCT-116, 96 h): < 0.1 µM

Cc1c[nH]c2c1C(c1cc(CO)cc(-c3ccc(C4CN(C(=O)OC(C)(C)C)C4)cc3)c1)(C(C)C)C(C#N)=C(N)O2 (centres unmarked) [KDG-0453]
half-life at 2 µM [1]: 10 to 20 min | microsomal CLint at 2 µM [1]: 70 to 100 µL/min/mg | IC50 [2]: A″ | IC50 ([3]; Homo sapiens, HCT-116, 96 h): < 0.1 µM

Cc1nnc(N2CC(C#Cc3cc(CO)cc(C4(C(C)C)C(C#N)=C(N)Oc5[nH]nc(C)c54)c3)C2)o1 (centres unmarked) [KDG-0472]
half-life at 2 µM [1]: ≥ 20 min | microsomal CLint at 2 µM [1]: ≤ 70 µL/min/mg | IC50 [2]: C″ | IC50 ([3]; Homo sapiens, HCT-116, 96 h): < 0.1 µM

Cc1nnc(N2CCC(C#Cc3cc(CO)cc(C4(C(C)C)C(C#N)=C(N)Oc5[nH]nc(C)c54)c3)CC2)o1 (centres unmarked) [KDG-0478]
half-life at 2 µM [1]: 5 to 10 min | microsomal CLint at 2 µM [1]: 70 to 100 µL/min/mg | IC50 [2]: C″ | IC50 ([3]; Homo sapiens, HCT-116, 96 h): > 5 µM

Cc1n[nH]c2c1C(c1cc(C#C[C@@H]3CC[C@@H]3CNC(=O)OC(C)(C)C)cc(CO)c1)(C(C)C)C(C#N)=C(N)O2 (some centres unmarked) [KDG-0490]
half-life at 2 µM [1]: < 5 min | IC50 [2]: B″

Cc1n[nH]c2c1C(c1cc(C#CC34CC(NC(=O)OC(C)(C)C)(C3)C4)cc(CO)c1)(C(C)C)C(C#N)=C(N)O2 (centres unmarked) [KDG-0502, tert-butyl N-[3-[2-(3-[6-amino-5-cyano-4-isopropyl-3-methyl-1H-pyrano[2,3-c]pyrazol-4-yl]-5-(hydroxymethyl)phenyl)ethynyl]bicyclo[1.1.1]pentan-1-yl]carbamate]
half-life at 2 µM [1]: ≥ 20 min | microsomal CLint at 2 µM [1]: ≤ 70 µL/min/mg | IC50 [2]: B″ | IC50 ([3]; Homo sapiens, HCT-116, 96 h): < 0.1 µM

Cc1n[nH]c2c1C(c1cc(C#C[C@H]3CC[C@@H](NC(=O)OC(C)(C)C)C3)cc(CO)c1)(C(C)C)C(C#N)=C(N)O2 (some centres unmarked) [KDG-0505]
half-life at 2 µM [1]: < 5 min | IC50 [2]: A″

Cc1n[nH]c2c1C(c1cc(C#C[C@H]3CC[C@H](NC(=O)OC(C)(C)C)C3)cc(CO)c1)(C(C)C)C(C#N)=C(N)O2 (some centres unmarked) [KDG-0506]
half-life at 2 µM [1]: 5 to 10 min | IC50 [2]: B″

Cc1n[nH]c2c1C(c1cc(C#N)cc(C#CC3CN(C(=O)OC(C)(C)C)C3)c1)(C(C)C)C(C#N)=C(N)O2 (centres unmarked) [KDG-0543]
half-life at 2 µM [1]: 10 to 20 min | IC50 [2]: B″
